From patent US8088806B2 (Achillion Pharmaceuticals, Inc., priority 2005, dated 2012)

System: HCV replicon
Test: Replicon based assay of HCV replication inhibition (NPT ELISA)
Assay type: cell-based, Hepatitis C virus
Settings: Hepatitis C virus, replicon based assay of HCV replication inhibition; Table II; read-out: Activity
In short: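 Huh-7 cells carrying a bicistronic HCV replicon (neo, EMCV-IRES-driven NS3–NS5B) treated overnight after seeding with usually 6 concentrations, 10 to 0.03 micromolar, for three days at 37° C without G418. Replication read as NPT level by captured ELISA; matched-DMSO wells and interferon alpha as controls.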

CCCCCOc1ccc(Nc2nc(CN3CCC(C(C)(C)N)C3)cs2)cc1F (stereo not shown) [compound 305, 4-((3-(2-aminopropan-2-yl)pyrrolidin-1-yl)methyl)-N-(3-fluoro-4-(pentyloxy)phenyl)thiazol-2-amine]
EC50: 1 to 10 µM

CCCCCCCCOc1ccc(Nc2nc(-c3csc(N)n3)cs2)cc1 [compound 306, 4-(2-aminothiazol-4-yl)-N-(4-(octyloxy)phenyl)thiazol-2-amine]
EC50: < 1 µM

CCCCCCCCOc1ccc(Nc2nc(-c3cn4cccnc4n3)cs2)cc1 [compound 307, 4-(imidazo[1,2-a]pyrimidin-2-yl)-N-(4-(octyloxy)phenyl)thiazol-2-amine]
EC50: < 1 µM

CCCCCCCCOc1ccc(Nc2nc(CN3CCN(C(=O)OC(C)(C)C)CC3)cs2)cc1 [compound 308, tert-butyl 4-((2-(4-(octyloxy)phenylamino)thia-zol-4-yl)methyl)piperazine-1-carboxylate]
EC50: 1 to 10 µM

CCCCCCCCOc1ccc(Nc2nc(CN3CCC(N(C)C(=O)OC(C)(C)C)C3)cs2)cc1 (stereo not shown) [compound 309, tert-butyl methyl(1-((2-(4-(octyloxy)phenylamino)thia-zol-4-yl)methyl)pyrrolidin-3-yl)carbamate]
EC50: 1 to 10 µM

CCCCCCCCOc1ccc(Nc2nc(-c3ccc(OC)cc3)cs2)cc1 [compound 310, 4-(4-methoxyphenyl)-N-(4-(octyloxy)phenyl)thiazol-2-amine]
EC50: < 1 µM

CCCCCCCCOc1ccc(Nc2nc(-c3ccc(OCC(=O)O)cc3)c(C)s2)cc1 [compound 311]
EC50: < 1 µM

CCCCCCCCOc1ccc(Nc2nc(-c3ccc(F)c(F)c3)cs2)cc1 [compound 312, 4-(3,4-difluorophenyl)-N-(4-(octyloxy)phenyl)thiazol-2-amine]
EC50: < 1 µM

CCCCCCCCOc1ccc(Nc2nc(CN3CCN(Cc4ccccn4)CC3)cs2)cc1 [compound 313]
EC50: 1 to 10 µM

CCCCCCCCOc1ccc(Nc2nc(CN3CCN(C4CCCCCC4)CC3)cs2)cc1 [compound 314, 4-((4-cycloheptylpiperazin-1-yl)methyl)-N-(4-(octyloxy)phenyl)thiazol-2-amine]
EC50: < 1 µM

CCCCCCCCOc1ccc(Nc2nc(CN3CCC(C(N)=O)CC3)cs2)cc1 [compound 315, 1-((2-(4-(octyloxy)phenylamino)thia-zol-4-yl)methyl)piperidine-4-carboxammide]
EC50: 1 to 10 µM

CCCCCCCCOc1ccc(Nc2nc(CN3CCOCC3)cs2)cc1 [compound 316, 4-(morpholinomethyl)-N-(4-(octyloxy)phenyl)thiazol-2-amine]
EC50: 1 to 10 µM

CCCCCCCCOc1ccc(Nc2nc(CN3CCC(N(C)C)C3)cs2)cc1 (stereo not shown) [compound 317, 4-((3-(dimethylamino)pyrrolidin-1-yl)methyl)-N-(4-(octyloxy)phenyl)thiazol-2-amine]
EC50: < 1 µM

CCCCCCCCOc1ccc(Nc2nc(CN3CCC(O)C3)cs2)cc1 (stereo not shown) [compound 318, 1-((2-(4-(octyloxy)phenylamino)thia-zol-4-yl)methyl)pyrrolidin-3-ol]
EC50: < 1 µM

CCCCCCCCOc1ccc(Nc2nc(CN3CCC(C(=O)OCC)CC3)cs2)cc1 [compound 319, ethyl 1-((2-(4-(octyloxy)phenylamino)thia-zol-4-yl)methyl)piperidine-4-carboxylate]
EC50: 1 to 10 µM

CCCCCCCCOc1ccc(Nc2nc(CN3C[C@H](O)CC3C(=O)OC)cs2)cc1 (stereo partly drawn) [compound 320, (4R)-methyl 4-hydroxy-1-((2-(4-(octyloxy)pheenylamino)thia-zol-4-yl)methyl)pyrrolidine-2-carboxylate]
EC50: < 1 µM

CCCCCCCCOc1ccc(Nc2nc(CN3CCC(O)CC3)cs2)cc1 [compound 321, 1-((2-(4-(octyloxy)phenylamino)thia-zol-4-yl)methyl)piperidin-4-ol]
EC50: 1 to 10 µM

CCCCCCCCOc1ccc(Nc2nc(CN3CCC(CO)CC3)cs2)cc1 [compound 322, (1-((2-(4-(octyloxy)phenylamino)thia-zol-4-yl)methyl)piperidin-4-yl)methanol]
EC50: 1 to 10 µM

CCCCCCCCOc1ccc(Nc2nc(CN3CCCC(C(=O)O)C3)cs2)cc1 (stereo not shown) [compound 323, 1-((2-(4-(octyloxy)phenylamino)thia-zol-4-yl)methyl)piperidine-3-carboxylic acid]
EC50: 1 to 10 µM

CCCCCCCCOc1ccc(Nc2nc(CN3CCC(C)CC3)cs2)cc1 [compound 324, 4-((4-methylpiperidin-1-yl)methyl)-N-(4-(octyloxy)phenyl)thiazol-2-amine]
EC50: 1 to 10 µM

CCCCCCCCOc1ccc(Nc2nc(CN3CCCC(C)C3)cs2)cc1 (stereo not shown) [compound 325, 4-((3-methylpiperidin-1-yl)methyl)-N-(4-(octyloxy)phenyl)thiazol-2-amine]
EC50: 1 to 10 µM

CCCCCCCCOc1ccc(Nc2nc(CN3C(C)CCCC3C)cs2)cc1 (stereo not shown) [compound 326, 4-((2,6-dimethylpiperidin-1-yl)methyl)-N-(4-(octyloxy)phenyl)thiazol-2-amine]
EC50: 1 to 10 µM

CCCCCCCCOc1ccc(Nc2nc(-c3ccccc3)cs2)cc1 [compound 327, N-(4-(octyloxy)phenyl)-4-phenylthiazol-2-amine]
EC50: < 1 µM

CCCCCCCCOc1ccc(Nc2nc(-c3ccc(F)cc3)cs2)cc1 [compound 328, 4-(4-fluorophenyl)-N-(4-(octyloxy)phenyl)thiazol-2-amine]
EC50: < 1 µM

CCCCCCCCOc1ccc(Nc2nc(-c3ccc(Cl)c(Cl)c3)cs2)cc1 [compound 329, 4-(3,4-ddichlorophenyl)-N-(4-(octyloxy)phenyl)thiazol-2-amine]
EC50: 1 to 10 µM

CCCCCCCCOc1ccc(Nc2nc(-c3ccc(F)cc3F)cs2)cc1 [compound 330, 4-(2,4-difluorophenyl)-N-(4-(octyloxy)phenyl)thiazol-2-amine]
EC50: 1 to 10 µM

CCCCCCCCOc1ccc(Nc2nc(C3=NC(=O)NC3)cs2)cc1 [compound 331, 4-(2-(4-(octyloxy)phenylamino)thia-zol-4-yl)-1H-imidazol-2(5H)-one]
EC50: 1 to 10 µM

CCCCCCCCOc1ccc(Nc2nc(-c3csc(-c4ccccc4)n3)cs2)cc1 [compound 332, N-(4-(octyloxy)phenyl)-4-(2-phenylthiazol-4-yl)thiazol-2-amine]
EC50: 1 to 10 µM

COc1ccc(-c2nc(Nc3cccc(C(F)(F)F)c3)sc2-c2ccc(OC)cc2)cc1 [compound 333, 4,5-bis(4-methoxyphenyl)-N-(3-(trifluoromethyl)phenyl)thia-zol-2-amine]
EC50: 1 to 10 µM

CCOC(=O)c1ccc(Nc2nc(-c3ccc(OC)cc3)c(-c3ccc(OC)cc3)s2)cc1 [compound 334, ethyl 4-(4,5-bis(4-methoxyphenyl)thiazol-2-ylamino)benzoate]
EC50: 1 to 10 µM

COc1ccc(-c2nc(NC(=O)c3ccccc3)sc2-c2ccc(OC)cc2)cc1 [compound 335, N-(4,5-bis(4-methoxyphenyl)thiazol-2-yl)benzamide]
EC50: 1 to 10 µM

COc1ccc(CNc2nc(-c3ccc(OC)cc3)c(-c3ccc(OC)cc3)s2)cc1 [compound 336, N-(4-methoxybenzyl)-4,5-bis(4-methoxypheenyl)thiazol-2-amine]
EC50: > 10 µM

CCOC(=O)c1ccc(Nc2nc(-c3ccc(OCC(=O)O)cc3)c(C)s2)cc1 [compound 337, 2-(4-(2-(4-(ethoxycarbonyl)phenylamino)-5-methylthiazol-4-yl)phenoxy)acetic acid]
EC50: > 10 µM

Cc1sc(Nc2cccc(C(F)(F)F)c2)nc1-c1ccc(OCC(=O)O)cc1 [compound 338, 2-(4-(5-methyl-2-(3-(trifluoromthyl)phenylamino)thiazol-4-yl)phenoxy)acetic acid]
EC50: > 10 µM

Cc1sc(NC(=O)c2ccccc2)nc1-c1ccc(OCC(=O)O)cc1 [compound 340, 2-(4-(2-benzamido-5-methylthiazol-4-yl)phenoxy)acetic acid]
EC50: > 10 µM

COc1ccc(CNc2nc(-c3ccc(OCC(=O)O)cc3)c(C)s2)cc1 [compound 341, 2-(4-(2-(4-methoxybenzylamino)-5-methylthiazol-4-yl)phenoxy)acetic acid]
EC50: > 10 µM

CCOC(=O)c1ccc(Nc2nc(-c3ccc(CC(=O)O)cc3)c(C)s2)cc1 [compound 342, 2-(4-(2-(4-(ethoxycarbonyl)phenylamino)-5-methylthiazol-4-yl)phenyl)acetic acid]
EC50: > 10 µM

Cc1sc(Nc2cccc(C(F)(F)F)c2)nc1-c1ccc(CC(=O)O)cc1 [compound 343, 2-(4-(5-methyl-2-(3-(trifluoromethyl)phenylamino)thiazol-4-yl)phenyl)acetic acid]
EC50: > 10 µM

Cc1sc(Nc2cccnc2)nc1-c1ccc(CC(=O)O)cc1 [compound 344, 2-(4-(5-methyl-2-(pyridin-3-ylamino)thiazol-4-yl)phenyl)acetic acid]
EC50: > 10 µM

Cc1sc(NC(=O)c2ccccc2)nc1-c1ccc(CC(=O)O)cc1 [compound 345, 2-(4-(2-benzamido-5-methylthiazol-4-yl)phenyl)acetic acid]
EC50: > 10 µM

COc1ccc(CNc2nc(-c3ccc(CC(=O)O)cc3)c(C)s2)cc1 [compound 346, 2-(4-(2-(4-methoxybenzylamino)-5-methylthiazol-4-yl)phenyl)acetic acid]
EC50: > 10 µM

CCOC(=O)c1ccc(Nc2nc(-c3ccc(F)cc3)c(C)s2)cc1 [compound 347, ethyl 4-(4-(4-fluorophenyl)-5-mthylthiazol-2-ylamino)benzoate]
EC50: > 10 µM

Cc1sc(Nc2cccc(C(F)(F)F)c2)nc1-c1ccc(F)cc1 [compound 348, 4-(4-fluorophenyl)-5-methyl-N-(3-(trifluoromethyl)phenyl)thia-zol-2-amine]
EC50: 1 to 10 µM

Cc1sc(Nc2cccnc2)nc1-c1ccc(F)cc1 [compound 349, N-(4-(4-fluorophenyl)-5-methylthiazol-2-yl)pyridin-3-amine]
EC50: > 10 µM

Cc1sc(NC(=O)c2ccccc2)nc1-c1ccc(F)cc1 [compound 350, N-(4-(4-fluorophenyl)-5-methylthiazol-2-yl)benzamide]
EC50: > 10 µM

COc1ccc(CNc2nc(-c3ccc(F)cc3)c(C)s2)cc1 [compound 351, N-(4-methoxybenzyl)-4-(4-fluorophenyl)-5-methylthiazol-2-amine]
EC50: > 10 µM
